Measurements as given in article PMC3001719, “The heme sensing response regulator HssR in Staphylococcus aureus but not the homologous RR23 in Listeria monocytogenes modulates susceptibility to the antimicrobial peptide plectasin” (BMC Microbiology, 2010).

Tests used:
[1] = test system: S. aureus 15981 wild type; experiment: Growth in TSB with plectasin; type: cell-based, Staphylococcus aureus; settings: plectasin 35 μg/ml, 37°C, absorbance at 600 nm
Method: (§1) Overnight cultures of S. aureus were diluted to an absorbance at 600 nm of 0.05 in TSB with and without 4 μM hemin and/or 35 μg/ml plectasin and grown at 37°C. Measurements of the absorbance were made every 30 minutes.

[2] = test system: S. aureus 8325-4 hssR::bursa/pRMC2-hssRS; experiment: Growth in TSB with plectasin; type: cell-based, Staphylococcus aureus; settings: plectasin 35 μg/ml, 37°C, absorbance at 600 nm
Method: as §1

[3] = test system: plasmid DNA (pBluescript II SK+); experiment: DNA-binding analysis by in vitro gel retardation; settings: 100 ng plasmid DNA with increasing amounts of peptide, 1 h at room temperature, data not shown
Method: Gel retardation analysis were performed as described by Nan et al by mixing 100 ng of plasmid DNA (pBluescript II SK^+(Stratagene)) with increasing amounts of peptide in 20 μl binding buffer (5% glycerol, 10 mM Tris, 1 mM EDTA, 1 mM dithiothreitol, 20 mM KCL and 50 μg ml^-1 bovine serum albumin). Reaction mixtures were incubated 1 h at room temperature and subjected to 1% agarose gel electrophoresis and visualised using ethidium bromide.

[4] = test system: S. aureus wild type and hssR mutants; experiment: Extracellular protein profile by SDS-PAGE; type: cell-based, Staphylococcus aureus; settings: S. aureus wild type and hssR mutants grown with or without plectasin overnight at 37°C in TSB; data not shown
Method: Prewarmed TSB and BHI (25 ml) in a 250 ml Erlenmeyer flask was inoculated with S. aureus strains and L. monocytogenes strains, respectively. These flasks were grown with and without plectasin at 37°C overnight (≈ 17 h) with shaking. The next morning, the exact absorbance at 600 nm of the cultures was measured, and 15 ml of culture was centrifuged to precipitate the cells (6 000 RPM; 7 min; 0°C). The supernatant was transferred to a 50 ml Blue cap bottle (placed in an ice/water bath), and the extracellular proteins were precipitated by adding one volume of ice-cold 96% EtOH and left in the refrigerator overnight for proteins to precipitate. Precipitated proteins were collected by centrifugation (11,000 RPM; 30 min; 0°C). Protein pellets were suspended in a volume of 50 mM Tris-HCl (pH 6.8) adjusted to the original absorbance of the overnight culture so that 15 ml of overnight culture with absorbance at 600 nm of 5.0 was suspended in 0.8 ml of 50 mM Tris-HCl (pH 6.8). A sample of 15 μl of the protein extracts was analysed on NuPAGE® 4-12% Bis-Tris gels (Invitrogen) using the X Cell SureLock® Mini-Cell system (Invitrogen) as recommended by the supplier. The gels were Coomassie stained using GelCode® Blue Stain Reagent (Pierce).

SMILES: CC[C@H](C)[C@@H]1NC(=O)[C@H](CO)NC(=O)[C@H](CCCCN)NC(=O)[C@@H]2CSSC[C@@H](C(=O)N[C@@H](Cc3ccc(O)cc3)C(=O)O)NC(=O)[C@H](CCCCN)NC(=O)[C@@H]3CSSC[C@H](NC(=O)[C@H](CCC(N)=O)NC(=O)[C@H](CCSC)NC(=O)[C@H](CC(=O)O)NC(=O)[C@H](CC(=O)O)NC(=O)[C@H](CCC(=O)O)NC(=O)[C@H](CC(=O)O)NC(=O)[C@H](Cc4c[nH]c5ccccc45)NC(=O)[C@@H]4CCCN4C(=O)CNC(=O)[C@H](CC(N)=O)NC(=O)[C@@H](NC(=O)CNC(=O)[C@H](Cc4ccccc4)NC(=O)CN)CSSC[C@H](NC(=O)[C@H](Cc4ccc(O)cc4)NC(=O)CNC(=O)CNC(=O)[C@H](CCCCN)NC(=O)[C@H](Cc4ccc(O)cc4)NC(=O)CNC(=O)[C@H](CCCCN)NC1=O)C(=O)N[C@@H](C)C(=O)N[C@@H](CCCCN)C(=O)NCC(=O)NCC(=O)N[C@@H](Cc1ccccc1)C(=O)N[C@@H](C(C)C)C(=O)N3)C(=O)N[C@@H](Cc1c[nH]cn1)C(=O)N[C@@H](CC(N)=O)C(=O)N[C@@H](Cc1c[nH]cn1)C(=O)N2 [plectasin]
- Growth in the presence of plectasin [1]: inhibited the growth
- Growth in the presence of plectasin [2]: inhibited the growth to a level comparable to wild type
- Binding to DNA [3]: unable to demonstrate binding
- Abundance of extracellular proteins [4]: no difference in the abundance of extracellular proteins
